The results in this text go back to the supplement of paper PMC5412046.

Structures can show the parent of a compound that is named as a salt.

For test [1], the system named is SB.mhdgc-1. In words: viability at highest tested concentration (MAXR) relative to DMSO; higher = less cytotoxic. The settings on record: SB.mhdgc-1 (hereditary c.1380delA CDH1 gastric cancer). The procedure, abridged:
(§1)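 Reported here is DMSO-normalised viability, either at the highest concentration or as a trapezoidal area under the curve. Hereditary or sporadic patient-derived gastric cancer cells received compound by pintool at 11 threefold-diluted concentrations and were read with CellTiter-Glo after 48 h.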

The subject of test [2] is SB.msgc-1. Described as above. The settings on record: SB.msgc-1 (sporadic gastric cancer). The method in brief:
as §1

In test [3] the test system is SB.mhdgc-1. In words: area under the dose-response curve of % viability (trapezoidal, 11 doses) (% viability x log10 concentration); higher = less cytotoxic. The settings on record: SB.mhdgc-1 (hereditary c.1380delA CDH1 gastric cancer). The procedure, abridged: as §1
For test [4], the system named is SB.msgc-1. Described as above. The settings on record: SB.msgc-1 (sporadic gastric cancer). The method in brief:
as §1

In the case of `O=C(Nc1cccc2c(=O)cc(-c3nnn[nH]3)oc12)c1ccc(OCCCCc2ccccc2)cc1` [Pranlukast hydrate] (top concentration 46.0829 µM), the viability in test [1] is 9.85%; in test [2] it was 30.2%. In addition, the “area under the dose-response curve” value in test [3] stood at 499; in test [4], 316.

For the compound `Cn1cnc2c(F)c(Nc3ccc(Br)cc3F)c(C(=O)NOCCO)cc21` [ARRY-162] (top concentration 46.0829 µM), the viability in test [1] is 67.2%; in test [2], 80.5%. The “area under the dose-response curve” value in test [3] was determined as 403; in test [4], 500.

In the case of `COc1cc(-c2nn(C3CCC(N4CCN(C(C)=O)CC4)CC3)c3ncnc(N)c23)ccc1NC(=O)c1cc2ccccc2n1C` (stereo unspecified) (top concentration 46.0829 µM), the values for the viability in test [1] and in test [2] were 3.1% and 3.58%, respectively. The “area under the dose-response curve” value in test [3] is 460; in test [4] it was 442.

For the compound `CC(C[N+](C)(C)C)OC(N)=O` (stereo unspecified) [Bethanechol chloride] (top concentration 46.0829 µM), the viability was 119% in test [1] and 102% in test [2]. The entries for the “area under the dose-response curve” value in test [3] and in test [4] were 573 and 563, respectively.

Consider `CC(C)(C)NCC(O)c1ccc(O)c(CO)c1` (stereo unspecified) [Salbutamol sulfate] (top concentration 46.0829 µM), for which the figures for the viability in test [1] and in test [2] were 86.1% and 123%, respectively. For the same compound, the “area under the dose-response curve” value in test [3] is 541; in test [4] it was 580.

For `Cc1c(C)c2c(c(C)c1O)CCC(C)(COc1ccc(CC3SC(=O)NC3=O)cc1)O2` (stereo unspecified) [Troglitazone] (top concentration 46.0829 µM), the viability in test [1] came out at 98.6%; in test [2], 69.9%. Moreover, the “area under the dose-response curve” value in test [3] was 544; in test [4] it was 471.

Consider `CCn1c(-c2nonc2N)nc2cncc(CNC3CCNCC3)c21` (top concentration 46.0829 µM), for which the viability in test [1] turned out to be 65.3%; in test [2], 93.4%. Also, the “area under the dose-response curve” value in test [3] amounted to 484; in test [4], 534.

As for `COc1cc2nc(-c3ccc(N4CCN(C)CC4)cc3)nc(NCCN3CCOCC3)c2cc1OC` (top concentration 46.0829 µM), the figures for the viability in test [1] and in test [2] were 1.59% and 2.22%, respectively. The “area under the dose-response curve” value came out at 397 in test [3] and 320 in test [4].

For the compound `O=C(N[C@H]1CN2CCC1CC2)c1ccc(Cl)cc1` (top concentration 46.0829 µM), the viability worked out at 45.8% in test [1] and 8.07% in test [2]. The “area under the dose-response curve” value came out at 511 in test [3] and 555 in test [4].

With `Oc1cc(-c2nc(-c3ccccc3)[nH]c2-c2ccncc2)ccc1Cl` (top concentration 46.0829 µM), the viability in test [1] was found to be 19%; in test [2], 70.2%. In addition, the “area under the dose-response curve” value in test [3] came to 384; in test [4] it was 488.

In the case of `C[C@]12CC[C@@H]3c4ccc(O)cc4CC[C@H]3[C@@H]1[C@@H](O)[C@@H](O)[C@@H]2O` [Estetrol] (top concentration 46.0829 µM), the viability in test [1] was determined as 7.6%; in test [2], 78.6%. Further, the results for the “area under the dose-response curve” value in test [3] and in test [4] were 439 and 549, respectively.

Turning to `C[C@]12Cc3cn[nH]c3C[C@@H]1CC[C@@H]1[C@@H]2CC[C@@]2(C)[C@H]1CC[C@]2(C)O` [Stanozolol] (top concentration 46.0829 µM), the viability in test [1] came to 44.9%; in test [2], 55.5%. Further, the “area under the dose-response curve” value in test [3] was 444; in test [4], 510.

For the compound `Cc1n[nH]c2ccc(-c3cncc(OC[C@@H](N)Cc4ccccc4)c3)cc12` (top concentration 46.0829 µM), the figures for the viability in test [1] and in test [2] were 0.463% and 16.3%, respectively. In addition, the “area under the dose-response curve” value stood at 389 in test [3] and 458 in test [4].

With `COc1cc2ncn(-c3cc(OCc4ccccc4C(F)(F)F)c(C(N)=O)s3)c2cc1OC` (top concentration 46.0829 µM), the viability was 56.5% in test [1] and 45.9% in test [2]. In addition, the “area under the dose-response curve” value in test [3] came to 455; in test [4] it was 488.

On to `Nc1cccc2c1CN(C1CCC(=O)NC1=O)C2=O` (stereo unspecified) [Lenalidomide] (top concentration 92.1659 µM), for which the results for the viability in test [1] and in test [2] were 120% and 112%, respectively. Further, the “area under the dose-response curve” value was determined as 478 in test [3] and 481 in test [4].

Take `CN1CCN(C2=Nc3cc(Cl)ccc3Nc3ccccc32)CC1` [Clozapine] (top concentration 46.0829 µM): the viability worked out at 96.2% in test [1] and 94.2% in test [2]. Moreover, the “area under the dose-response curve” value in test [3] amounted to 462; in test [4] it was 537.

As to `COc1ccc2nc3cc(Cl)ccc3c(Nc3cc(CN4CCCC4)c(O)c(CN4CCCC4)c3)c2n1` [Pyronaridine] (top concentration 46.0829 µM), the viability in test [1] was determined as 88.9%; in test [2] it was 55.9%. The entries for the “area under the dose-response curve” value in test [3] and in test [4] were 595 and 504, respectively.

For `CN(C/C=C/C#CC(C)(C)C)Cc1cccc2ccccc12` [Terbinafine hydrochloride] (top concentration 46.0829 µM), the results for the viability in test [1] and in test [2] were 109% and 97.5%, respectively. The “area under the dose-response curve” value in test [3] was determined as 496; in test [4], 557.

With `CC[C@]1(O)C[C@@H]2CN(CCc3c([nH]c4ccccc34)[C@@](C(=O)OC)(c3cc4c(cc3OC)N(C)[C@H]3[C@@](O)(C(N)=O)[C@H](O)[C@]5(CC)C=CCN6CC[C@]43[C@@H]65)C2)C1` [Vindesine sulfate] (top concentration 46.0829 µM), the viability in test [1] was determined as 36.3%; in test [2] it was 40.5%. In addition, the “area under the dose-response curve” value amounted to 225 in test [3] and 221 in test [4].

`CCCCCCCc1ccc(CCc2cccc(O)c2C(=O)O)cc1` [MG-149] (top concentration 46.0829 µM): the values for the viability in test [1] and in test [2] were 90.6% and 79.6%, respectively. Further, the “area under the dose-response curve” value came out at 525 in test [3] and 511 in test [4].

Take `C[C@]12CC[C@H]3[C@@H](CC[C@H]4NC(=O)\C=C/[C@]34C)[C@@H]1CC[C@@H]2C(=O)NC5=CC(=CC=C5C(F)(F)F)C(F)(F)F` [Dutasteride] (top concentration 46.0829 µM): the viability is 36.3% in test [1] and 31.9% in test [2]. Besides, the “area under the dose-response curve” value is 561 in test [3] and 463 in test [4].

Take `CC(=O)O[C@H]1C[C@@H]2CC[C@@H]3[C@H](CC[C@@]4(C)[C@H]3C[C@H]([N+]3(C)CCCCC3)[C@@H]4OC(C)=O)[C@@]2(C)C[C@@H]1[N+]1(C)CCCCC1` [Pancuronium bromide] (top concentration 46.0829 µM): the viability in test [1] was 71.7%; in test [2] it was 39.2%. The “area under the dose-response curve” value in test [3] came to 588; in test [4], 499.

In the case of `O=C(O)C1CCCN(CCC=C(c2ccccc2)c2ccccc2)C1` (stereo unspecified) (top concentration 46.0829 µM), the viability in test [1] turned out to be 47.8%; in test [2], 60.3%. The “area under the dose-response curve” value in test [3] was determined as 506; in test [4], 523.

On to `NC(=O)c1c(OCc2c(F)cc(Br)cc2F)nsc1NC(=O)NCCCCN1CCCC1` [OSI-632] (top concentration 46.0829 µM), for which the viability in test [1] worked out at 2.77%; in test [2], 96.5%. Also, the results for the “area under the dose-response curve” value in test [3] and in test [4] were 459 and 556, respectively.

Turning to `C/C=C/C[C@@H](C)C(=O)[C@H]1C(=O)N[C@@H](C(C)C)C(=O)N(C)CC(=O)N(C)[C@@H](CC(C)C)C(=O)N[C@@H](C(C)C)C(=O)N(C)[C@@H](CC(C)C)C(=O)N[C@@H](C)C(=O)N[C@H](C)C(=O)N(C)[C@@H](CC(C)C)C(=O)N(C)[C@@H](CC(C)C)C(=O)N(C)[C@@H](C(C)C)C(=O)N1C` [Valspodar] (top concentration 46.0829 µM), the viability was determined as 37.4% in test [1] and 35.1% in test [2]. In addition, the figures for the “area under the dose-response curve” value in test [3] and in test [4] were 393 and 475, respectively.

Regarding `CC(=O)Nc1ccc([C@H](C)C(=O)Nc2ncc(C(C)C)s2)cc1` (top concentration 46.0829 µM), the viability in test [1] amounted to 51.4%; in test [2] it was 45.1%. Also, the “area under the dose-response curve” value in test [3] amounted to 340; in test [4], 425.

In the case of `C[N]1C=C(C2=C1C=CC=C2)\C3=C(\C(=O)NC3=O)C4=C5CC(CN)CC[N]5C6=C4C=CC=C6` (stereo unspecified) [Ro-31-8425] (top concentration 46.0829 µM), the viability worked out at 2.44% in test [1] and 6.88% in test [2]. Also, the “area under the dose-response curve” value in test [3] was found to be 364; in test [4], 489.

Regarding `COc1cc2c(Nc3ccc(NC(=O)c4ccccc4)cc3)ncnc2cc1OCCCN1CCOCC1` (top concentration 46.0829 µM), the values for the viability in test [1] and in test [2] were 11.7% and 43.1%, respectively. In addition, the “area under the dose-response curve” value came out at 466 in test [3] and 519 in test [4].

Consider `O=C(O)CCCc1c[nH]c2ccccc12` [3-indolebutyric acid] (top concentration 46.0829 µM), for which the viability in test [1] turned out to be 126%; in test [2] it was 87.7%. In addition, the “area under the dose-response curve” value turned out to be 544 in test [3] and 539 in test [4].

As for `CN1CCN(c2ccc([N+](=O)[O-])c3no[n+]([O-])c23)CC1` (top concentration 46.0829 µM), the viability in test [1] stood at 4.84%; in test [2] it was 21.4%. For the same compound, the “area under the dose-response curve” value amounted to 434 in test [3] and 456 in test [4].

`CC[C@H]1OC(=O)[C@H](C)[C@@H](O[C@H]2C[C@@](C)(OC)[C@@H](O)[C@H](C)O2)[C@H](C)[C@@H](O[C@@H]2O[C@@H](C)C[C@H](N(C)C)[C@H]2O)[C@](C)(O)C[C@@H](C)C(=O)[C@H](C)[C@@H](O)[C@]1(C)O` [Erythromycin] (top concentration 46.0829 µM): the viability in test [1] was 91%; in test [2], 80.6%. Also, the “area under the dose-response curve” value in test [3] was 445; in test [4], 515.

With `COCC(=O)NC/C=C/c1ccc2ncnc(Nc3ccc(Oc4ccc(C)nc4)c(C)c3)c2c1` (top concentration 46.0829 µM), the viability in test [1] amounted to 59.7%; in test [2], 33.4%. The figures for the “area under the dose-response curve” value in test [3] and in test [4] were 484 and 345, respectively.

With `CC(NCCc1ccc(O)cc1)C(O)c1ccc(O)cc1` (stereo unspecified) [Ritodrine hydrochloride] (top concentration 46.0829 µM), the viability in test [1] worked out at 97.5%; in test [2] it was 112%. The “area under the dose-response curve” value in test [3] is 570; in test [4], 581.

Consider `Cc1cnc(Nc2ccc(N3CCN(C)CC3)cc2)nc1Nc1cccc([S+](=O)([O-])NC(C)(C)C)c1` (top concentration 46.0829 µM), for which the viability in test [1] was found to be 3.82%; in test [2] it was 8.47%. For the same compound, the “area under the dose-response curve” value in test [3] amounted to 504; in test [4], 443.

The term viability denotes a read-out of living cells in per cent, often relative to untreated cells.
